Laboratory results reported in ChEMBL document CHEMBL4422652, “Synthesis and biological evaluation of novel oleanolic acid analogues as potential α-glucosidase inhibitors” (Eur J Med Chem, 2019).
Values belong to the molecule of their own block, whether it stands above or below them. Activity calls are given as the source filed them. No cut-off for these calls is given here.

Tests used:
[1] = tested on: Mus musculus; test: Hypoglycemic activity in streptozocin-induced diabetic Kunming mouse assessed as blood glucose level at 50 mg/kg, po administered once daily for 18 days measured on day 6 post dose (reference value: 22.31 +/- 1.05 mM); type: functional
[2] = tested on: Mus musculus; test: Hypoglycemic activity in streptozocin-induced diabetic Kunming mouse assessed as blood glucose level at 50 mg/kg, po administered once daily for 18 days measured on day 12 post dose (reference value: 23.27 +/- 1.03 mM); type: functional
[3] = tested on: Mus musculus; test: Hypoglycemic activity in streptozocin-induced diabetic Kunming mouse assessed as blood glucose level at 50 mg/kg, po administered once daily for 18 days measured on day 1 post dose (reference value: 18.86 +/- 0.7 mM); type: functional
[4] = tested on: Mus musculus; test: Hypoglycemic activity in streptozocin-induced diabetic Kunming mouse assessed as blood glucose level at 50 mg/kg, po administered once daily for 18 days measured on day 12 post dose (reference value: 23.09 +/- 1.45 mM); type: functional
[5] = Inhibition of baker's yeast alpha-glucosidase using phenol-alphaD-glycopyranoside as substrate preincubated for 10 mins followed by substrate addition and measured after 30 mins; parameters: species or system Saccharomyces cerevisiae
[6] = tested on: Saccharomyces cerevisiae; test: Non-competitive inhibition of baker's yeast alpha-glucosidase assessed as Km for substrate using varying levels of phenol-alphaD-glycopyranoside as substrate preincubated for 10 mins followed by substrate addition and measured after 30 mins by double reciprocal plot analysis
[7] = Toxicity in streptozocin-induced diabetic Kunming mouse assessed as effect on body weight at 50 mg/kg, po administered once daily for 18 days measured every 6 days starting from day 1 during compound dosing; type: organism-based; details: in vivo
[8] = tested on: NIH3T3; test: Cytotoxicity against mouse 3T3 cells assessed as growth inhibition measured after 48 hrs by MTT assay; type: cell-based; details: NIH3T3, 48 h
[9] = Non-competitive inhibition of baker's yeast alpha-glucosidase using varying levels of phenol-alphaD-glycopyranoside as substrate preincubated for 10 mins followed by substrate addition and measured after 30 mins by double reciprocal plot analysis; parameters: species or system Saccharomyces cerevisiae
[10] = tested on: Mus musculus; test: Hypoglycemic activity in streptozocin-induced diabetic Kunming mouse assessed as reduction in blood glucose AUC at 50 mg/kg, po treated 30 mins prior to glucose challenge and measured up to 210 mins by OGTT; type: functional, organism-based
[11] = tested on: Mus musculus; test: Hypoglycemic activity in streptozocin-induced diabetic Kunming mouse assessed as reduction in blood glucose level at 50 mg/kg, po treated 30 mins prior to glucose challenge and measured up to 210 mins by OGTT; type: functional, organism-based
[12] = tested on: Mus musculus; test: Hypoglycemic activity in streptozocin-induced diabetic Kunming mouse assessed as reduction in blood glucose level at 50 mg/kg, po measured at 9 hrs post dose; type: functional, organism-based
[13] = Inhibition of baker's yeast alpha-glucosidase using PNPG as substrate after 10 mins by spectrophotometric method; parameters: species or system Saccharomyces cerevisiae

SMILES: C[C@H]1O[C@H](O[C@H]2[C@H](O)[C@@H](O)[C@@H](O[C@H]3[C@H](O)[C@@H](O)C(O)O[C@@H]3CO)O[C@@H]2CO)[C@H](O)[C@@H](O)[C@@H]1N[C@H]1C=C(CO)[C@@H](O)[C@H](O)[C@H]1O (some centres not stated) [ACARBOSE]
- Activity [1]: 22.44 mM
- Activity [2]: 15.48 mM
- Activity [3]: 19.14 mM
- Activity [4]: 20.41 mM
- IC50 [5]: 579000 nM

SMILES: CC1(C)CC[C@]2(C(=O)O)CC[C@]3(C)C(=CC[C@@H]4[C@@]5(C)CC[C@H](O)C(C)(C)[C@@H]5CC[C@]43C)[C@@H]2C1 [OLEANOLIC_ACID]
- IC50 [5]: 2410 nM

SMILES: CC1(C)CC[C@@]23CC[C@]4(C)[C@](OC2=O)([C@H](F)C[C@@H]2[C@@]5(C)CCC(=O)C(C)(C)[C@@H]5CC[C@]24C)[C@@H]3C1
- IC50 [5]: 16700 nM

SMILES: CC1(C)CC[C@@]23CC[C@]4(C)[C@](OC2=O)([C@H](F)C[C@@H]2[C@@]5(C)C/C(=C\c6ccc(-c7ccccn7)cc6)C(=O)C(C)(C)[C@@H]5CC[C@]24C)[C@@H]3C1
- IC50 [5]: 3670 nM

SMILES: CC1(C)CC[C@@]23CC[C@]4(C)[C@](OC2=O)([C@H](F)C[C@@H]2[C@@]5(C)C/C(=C\c6cnccn6)C(=O)C(C)(C)[C@@H]5CC[C@]24C)[C@@H]3C1
- IC50 [5]: 3140 nM

SMILES: CC1(C)CC[C@@]23CC[C@]4(C)[C@](OC2=O)([C@H](F)C[C@@H]2[C@@]5(C)C/C(=C\c6ccc(Br)cc6F)C(=O)C(C)(C)[C@@H]5CC[C@]24C)[C@@H]3C1
- IC50 [5]: 1170 nM

SMILES: CC1(C)CC[C@@]23CC[C@]4(C)[C@](OC2=O)([C@H](F)C[C@@H]2[C@@]5(C)C/C(=C\c6ccccc6Cl)C(=O)C(C)(C)[C@@H]5CC[C@]24C)[C@@H]3C1
- IC50 [5]: 1540 nM

SMILES: CC1(C)CC[C@@]23CC[C@]4(C)[C@](OC2=O)([C@H](F)C[C@@H]2[C@@]5(C)C/C(=C\c6ccccn6)C(=O)C(C)(C)[C@@H]5CC[C@]24C)[C@@H]3C1
- IC50 [5]: 2670 nM

SMILES: Cc1cccc(/C=C2\C[C@]3(C)[C@H]4C[C@@H](F)[C@]56OC(=O)[C@@]7(CCC(C)(C)C[C@H]75)CC[C@@]6(C)[C@]4(C)CC[C@H]3C(C)(C)C2=O)c1
- IC50 [5]: 2160 nM

SMILES: C[C@@H]1C[C@@H]([C@H](O)CC2CC(=O)NC(=O)C2)C(=O)[C@@H](C)C1 [CYCLOHEXIMIDE]
- IC50 [8]: 250 nM

SMILES: CC1(C)CC[C@@]23CC[C@]4(C)[C@](OC2=O)([C@H](F)C[C@@H]2[C@@]5(C)CC[C@H](O)C(C)(C)[C@@H]5CC[C@]24C)[C@@H]3C1
- IC50 [5]: 8120 nM

The next lines start with results.

- IC50 [5]: 1510 nM
SMILES: CC1(C)CC[C@@]23CC[C@]4(C)[C@](OC2=O)([C@H](F)C[C@@H]2[C@@]5(C)C/C(=C\c6ccc(F)cc6)C(=O)C(C)(C)[C@@H]5CC[C@]24C)[C@@H]3C1

- Km [6]: 120 µM
- Ki [9]: 880 nM
- IC50 [5]: 690 nM
SMILES: CC1(C)CC[C@@]23CC[C@]4(C)[C@](OC2=O)([C@H](F)C[C@@H]2[C@@]5(C)C/C(=C\c6ccc(Cl)cc6)C(=O)C(C)(C)[C@@H]5CC[C@]24C)[C@@H]3C1
- Activity [7]: Non-Toxic
- Activity [1]: 23.59 mM
- Activity [2]: 16.22 mM
- IC50 [8]: > 300000 nM
- Activity [3]: 19.59 mM
- Activity [4]: 20.25 mM
- Activity [10]: Active
- Activity [11]: Active
- Activity [12]: Active

- IC50 [5]: 2790 nM
SMILES: CC1(C)CC[C@@]23CC[C@]4(C)[C@](OC2=O)([C@H](F)C[C@@H]2[C@@]5(C)C/C(=C\c6cccc(F)c6)C(=O)C(C)(C)[C@@H]5CC[C@]24C)[C@@H]3C1

- IC50 [13]: 1900 nM
- IC50 [5]: 1510 nM
SMILES: CC1(C)CC[C@@]23CC[C@]4(C)[C@](OC2=O)([C@H](F)C[C@@H]2[C@@]5(C)C/C(=C\c6ccc(C(F)(F)F)cc6)C(=O)C(C)(C)[C@@H]5CC[C@]24C)[C@@H]3C1

- IC50 [5]: 1860 nM
SMILES: CC1(C)CC[C@@]23CC[C@]4(C)[C@](OC2=O)([C@H](F)C[C@@H]2[C@@]5(C)C/C(=C\c6cccc(Br)c6)C(=O)C(C)(C)[C@@H]5CC[C@]24C)[C@@H]3C1
